Source: ChEMBL document CHEMBL5614434, “A Lysosome-Targeting hNEU1 Inhibitor Treats Myocardial Infarction: A Potential Therapeutic Breakthrough” (J Med Chem, 2024)
The source made the active and inactive calls. The calls are words filed in the database; no cut-off is given here.

Experiments:
Mus musculus [1] = assay: Cardioprotective activity against isoproterenol-induced myocardial injury in C57/6J mouse model assessed as decrease in CK-MB level in serum at 15 mg/kg, ip pretreated with isoproterenol for 3 days followed by compound addition and measured after 3 days by automatic biochemical analysis; type: functional, organism-based; settings: time 3.0 day
[2] = Apparent […] clearance in male C57/6J mouse at 15 mg/kg, ip measured upto 24 hrs by LC-MS/MS analysis; type: ADME, organism-based; settings: in vivo
[3] = Metabolic stability in mouse liver microsomes assessed as half life measured upto 60 mins in presence of NADPH regenerating system by LC-MS/MS analysis; type: ADME, Microsome
Mus musculus [4] = assay: Cardioprotective activity against isoproterenol-induced myocardial injury in C57/6J mouse model assessed as decrease in pericardial thickness at 15 mg/kg, ip pretreated with isoproterenol for 3 days followed by compound addition and measured after 3 days by H and E staining based analysis; type: functional, organism-based; settings: time 3.0 day
Mus musculus [5] = assay: Cardioprotective activity against isoproterenol-induced myocardial injury in C57/6J mouse model assessed as reduction in neutrophil ratio at 15 mg/kg, ip pretreated with isoproterenol for 3 days followed by compound addition and measured after 3 days; type: functional, organism-based; settings: time 3.0 day
[6] = Apparent volume of distribution during terminal phase in male C57/6J mouse at 15 mg/kg, ip measured upto 24 hrs by LC-MS/MS analysis; type: ADME, organism-based; settings: in vivo, read-out: Vz/F
[7] = Observed MRT(infinity) in male C57/6J mouse at 15 mg/kg, ip measured upto 24 hrs by LC-MS/MS analysis; type: ADME, organism-based; settings: in vivo
Mus musculus [8] = assay: Cardioprotective activity against isoproterenol-induced myocardial injury in C57/6J mouse model assessed as decrease in heart weight ratio at 15 mg/kg, ip pretreated with isoproterenol for 3 days followed by compound addition and measured after 3 days (reference value: 0.56 %); type: functional; parameters: scale not given: the % may be the effect or the level left; settings: time 3 day
Mus musculus [9] = assay: Cardioprotective activity against isoproterenol-induced myocardial injury in C57/6J mouse model assessed as inhibition of collagen fiber proliferation at 15 mg/kg, ip pretreated with isoproterenol for 3 days followed by compound addition and measured after 3 days by masson staining based analysis; type: functional, organism-based; settings: time 3.0 day
[10] = Half life in male C57/6J mouse at 15 mg/kg, ip measured upto 24 hrs by LC-MS/MS analysis; type: ADME, organism-based; settings: in vivo
Mus musculus [11] = assay: Cardioprotective activity against isoproterenol-induced myocardial injury in C57/6J mouse model assessed as reduction in CK value in serum at 15 mg/kg, ip pretreated with isoproterenol for 3 days followed by compound addition and measured after 3 days by automatic biochemical analysis; type: functional, organism-based; settings: time 3.0 day
H9c2 [12] = assay: Induction of autophagy in isoproterenol-induced rat H9c2 cells transfected with GFP-tagged LC3 assessed as increase in number of green fluorescence by confocal microscopy analysis; type: functional, cell-based
[13] = AUClast in male C57/6J mouse at 15 mg/kg, ip measured upto 24 hrs by LC-MS/MS analysis; type: ADME, organism-based; settings: in vivo
[14] = Metabolic stability in mouse liver microsomes assessed as parent compound remaining measured after 0.5 mins in absence of NADPH regenerating system by LC-MS/MS analysis; type: ADME, Microsome; settings: read-out: Stability
[15] = Metabolic stability in mouse liver microsomes assessed as parent compound remaining measured after 30 mins in presence of NADPH regenerating system by LC-MS/MS analysis; type: ADME, Microsome; settings: read-out: Stability
[16] = Metabolic stability in mouse liver microsomes assessed as parent compound remaining measured after 15 mins in absence of NADPH regenerating system by LC-MS/MS analysis; type: ADME, Microsome; settings: read-out: Stability
Mus musculus [17] = assay: Cardioprotective activity against isoproterenol-induced myocardial injury in C57/6J mouse model assessed as reduction in eosinophil ratio at 15 mg/kg, ip pretreated with isoproterenol for 3 days followed by compound addition and measured after 3 days; type: functional, organism-based; settings: time 3.0 day
[18] = Metabolic stability in mouse liver microsomes assessed as parent compound remaining measured after 0.5 mins in presence of NADPH regenerating system by LC-MS/MS analysis; type: ADME, Microsome; settings: read-out: Stability
H9c2 [19] = assay: Induction of autophagy in isoproterenol-induced rat H9c2 cells assessed as downregulation of PARP1 expression by Western blot analysis; type: functional, cell-based
[20] = Toxicity in isoproterenol-induced male C57/6J mouse model assessed as recovery of growth rate at 15 mg/kg, ip pretreated with isoproterenol for 3 days followed by compound addition and measured after 3 days; type: organism-based; settings: in vivo, 72 h, time 3 day
[21] = Tmax in male C57/6J mouse at 15 mg/kg, ip measured upto 24 hrs by LC-MS/MS analysis; type: ADME, organism-based; settings: in vivo
[22] = Metabolic stability in mouse liver microsomes assessed as parent compound remaining measured after 30 mins in absence of NADPH regenerating system by LC-MS/MS analysis; type: ADME, Microsome; settings: read-out: Stability
H9c2 [23] = assay: Induction of ATP production in isoproterenol-induced rat H9c2 cells at 0.1 micromol/L by fluorescence based analysis; type: functional; settings: dose 0.1 µmol/L
H9c2 [24] = assay: Cytotoxicity against isoproterenol-induced rat H9c2 cells assessed as cell viability at 0.001 to 1 uM under normoxia condition by CCK-8 method; type: toxicity, cell-based; settings: h9c2, 1 µM, dose 0.001-1 µM
[25] = Metabolic stability in mouse liver microsomes assessed as parent compound remaining measured after 15 mins in presence of NADPH regenerating system by LC-MS/MS analysis; type: ADME, Microsome; settings: read-out: Stability
H9c2 [26] = assay: Cytotoxicity against rat H9c2 cells assessed as cell viability at 0.001 to 50 uM under normoxia condition by CCK-8 method; type: toxicity, cell-based; settings: h9c2, 50 µM, dose 0.001-50 µM
H9c2 [27] = assay: Downregulation of mTORC1 level in isoproterenol-induced rat H9c2 cells by Western blot analysis; type: functional, cell-based; settings: dose 0.01-1 µM
Mus musculus [28] = assay: Cardioprotective activity against isoproterenol-induced myocardial injury in C57/6J mouse model assessed as effect on cTNI level in serum at 15 mg/kg, ip pretreated with isoproterenol for 3 days followed by compound addition and measured after 3 days by automatic biochemical analysis; type: functional, organism-based; settings: time 3.0 day
Mus musculus [29] = assay: Cardioprotective activity against isoproterenol-induced myocardial injury in C57/6J mouse model assessed as reduction in pericardial thickness at 15 mg/kg, ip pretreated with isoproterenol for 3 days followed by compound addition and measured after 3 days by masson staining based analysis; type: functional, organism-based; settings: time 3.0 day
[30] = Metabolic stability in mouse liver microsomes assessed as parent compound remaining measured after 60 mins in absence of NADPH regenerating system by LC-MS/MS analysis; type: ADME, Microsome; settings: read-out: Stability
[31] = Metabolic stability in mouse liver microsomes assessed as parent compound remaining measured after 45 mins in presence of NADPH regenerating system by LC-MS/MS analysis; type: ADME, Microsome; settings: read-out: Stability
Mus musculus [32] = assay: Cardioprotective activity against isoproterenol-induced myocardial injury in C57/6J mouse model assessed as reduction in eosinophil count at 15 mg/kg, ip pretreated with isoproterenol for 3 days followed by compound addition and measured after 3 days; type: functional, organism-based; settings: time 3.0 day
[33] = AUC infinity in male C57/6J mouse at 15 mg/kg, ip measured upto 24 hrs by LC-MS/MS analysis; type: ADME, organism-based; settings: in vivo
[34] = Metabolic stability in mouse liver microsomes assessed as parent compound remaining measured after 45 mins in absence of NADPH regenerating system by LC-MS/MS analysis; type: ADME, Microsome; settings: read-out: Stability
Mus musculus [35] = assay: Cardioprotective activity against isoproterenol-induced myocardial injury in C57/6J mouse model assessed as suppression of mTORC1 overexpression at 15 mg/kg, ip pretreated with isoproterenol for 3 days followed by compound addition and measured after 3 days by immunohistochemistry analysis; type: functional, organism-based; settings: time 3.0 day
H9c2 [36] = assay: Induction of apoptosis in isoproterenol-induced rat H9c2 cells assessed as late apoptotic cells at 0.1 micromol/L by annexin V-FITC and PI staining based flow cytometry analysis (reference value: 11.49%); type: toxicity, cell-based; settings: h9c2, 0.1 µM, dose 0.1 µmol/L
H9c2 [37] = assay: Induction of autophagy in isoproterenol-induced rat H9c2 cells assessed as downregulation of P62 expression by Western blot analysis; type: functional, cell-based
[38] = Drug uptake in lysosomes of rat H9c2 cells assessed as time required for compound concentration in lysosomes to exceed the cell lysates by HPLC analysis; type: ADME, subcellular, Lysosome
Mus musculus [39] = assay: Cardioprotective activity against isoproterenol-induced myocardial injury in C57/6J mouse model assessed as reduction in cardiac swelling size at 15 mg/kg, ip pretreated with isoproterenol for 3 days followed by compound addition and measured after 3 days (reference value: 5.15 millimeter); type: functional; settings: time 3 day
[40] = Permeability of compound in MDCK cells; type: ADME, cell-based, Canis lupus familiaris; settings: dog, read-out: permeability
H9c2 [41] = assay: Upregulation of cytochrome-c level in isoproterenol-induced rat H9c2 cells at 0.01 to 1 uM by Western blot analysis; type: functional, cell-based; settings: dose 0.01-1 µM
Mus musculus [42] = assay: Cardioprotective activity against isoproterenol-induced myocardial injury in C57/6J mouse model assessed as appearance of clear cell boundaries in heart at 15 mg/kg, ip pretreated with isoproterenol for 3 days followed by compound addition and measured after 3 days by H and E staining based analysis; type: functional, organism-based; settings: time 3.0 day
H9c2 [43] = assay: Induction of apoptosis in isoproterenol-induced rat H9c2 cells assessed as early apoptotic cells at 0.1 micromol/L by annexin V-FITC and PI staining based flow cytometry analysis (reference value: 10.37%); type: toxicity, cell-based; settings: h9c2, 0.1 µM, dose 0.1 µmol/L
[44] = Metabolic stability in mouse liver microsomes assessed as parent compound remaining measured after 60 mins in presence of NADPH regenerating system by LC-MS/MS analysis; type: ADME, Microsome; settings: read-out: Stability
[45] = Passive permeability in MDCK cells; type: ADME, cell-based, Canis lupus familiaris; settings: dog, read-out: permeability
[46] = Cmax in male C57/6J mouse at 15 mg/kg, ip measured upto 24 hrs by LC-MS/MS analysis; type: ADME, organism-based; settings: in vivo
[47] = Metabolic stability in mouse liver microsomes assessed as clearance measured upto 60 mins in presence of NADPH regenerating system by LC-MS/MS analysis; type: ADME, Microsome; settings: read-out: CLH
H9c2 [48] = assay: Induction of autophagy in isoproterenol-induced rat H9c2 cells assessed as increase in LC3-I to LC3-II conversion by confocal microscopy based analysis; type: functional, cell-based
[49] = Dose normalized AUClast in male C57/6J mouse at 15 mg/kg, ip measured upto 24 hrs by LC-MS/MS analysis; type: ADME, organism-based; settings: in vivo
H9c2 [50] = assay: Inhibition of ROS production in isoproterenol-induced rat H9c2 cells assessed as reduction in DCF value at 0.1 uM by DCFH-DA staining based flow cytometry analysis (reference value: 371.9); type: functional
Mus musculus [51] = assay: Cardioprotective activity against isoproterenol-induced myocardial injury in C57/6J mouse model assessed as reduction in neutrophil count at 15 mg/kg, ip pretreated with isoproterenol for 3 days followed by compound addition and measured after 3 days; type: functional, organism-based; settings: time 3.0 day
H9c2 [52] = assay: Upregulation of Ho-1 level in isoproterenol-induced rat H9c2 cells at 0.01 to 1 uM by Western blot analysis; type: functional, cell-based; settings: dose 0.01-1 µM
[53] = Drug localization in lysosome of rat H9c2 cells by confocal microscopy based analysis; type: ADME, subcellular
[54] = Drug localization in Mitochondria of rat H9c2 cells by confocal microscopy based analysis; type: ADME

## CCC(CC)O[C@@H]1C=C(C(=O)OCCN2CCOCC2)C[C@H](N)[C@H]1NC(C)=O
Mus musculus [1]
  Activity: Active
[2]
  CL/F: 7.23 L/h/kg
[3]
  half-life: 3.07 h
Mus musculus [4]
  Activity: Active
Mus musculus [5]
  Activity: Active
[6]
  Vd/F: 24 L/kg
[7]
  MRT inf: 1.01 h
Mus musculus [8]
  Activity: 0.46%
Mus musculus [9]
  Activity: Active
[10]
  half-life: 2.37 h
Mus musculus [11]
  Activity: Active
H9c2 [12]
  Activity: Active
[13]
  AUC(0-t) at 24 h: 2.08 µg·h/mL
[14]
  remaining at 0.5 min: 100%
[15]
  remaining at 0.5 h: 83.9%
[16]
  remaining at 0.25 h: 106%
Mus musculus [17]
  Activity: Active
[18]
  remaining at 0.5 min: 100%
H9c2 [19]
  Activity: Active
[20]
  Activity: Non-Toxic
[21]
  Tmax: 0.25 h
[22]
  remaining at 0.5 h: 109%
H9c2 [23]
  Activity: 48.9 nmol/mg
H9c2 [24]
  Activity: Non-Toxic
[25]
  remaining at 0.25 h: 89.9%
H9c2 [26]
  Activity: Non-Toxic
H9c2 [27]
  Activity: Dose-Dependent Effect
Mus musculus [28]
  Activity: Active
Mus musculus [29]
  Activity: Active
[30]
  remaining at 1 h: 97.2%
[31]
  remaining at 0.75 h: 83%
Mus musculus [32]
  Activity: Active
[33]
  AUC(0-inf): 2.1 µg·h/mL
[34]
  remaining at 0.75 h: 104%
Mus musculus [35]
  Activity: Active
H9c2 [36]
  Activity: 0.15%
H9c2 [37]
  Activity: Active
[38]
  Time: 3.43 min
Mus musculus [39]
  Activity: 4.35 mm
[40]
  Papp: 440 nm/s
H9c2 [41]
  Activity: Active
Mus musculus [42]
  Activity: Active
H9c2 [43]
  Activity: 6.07%
[44]
  remaining at 1 h: 77.2%
[45]
  Papp: > 200 nm/s
[46]
  Cmax: 2.38 µg/mL
[47]
  microsomal CLint: 7.53 µL/min/mg
H9c2 [48]
  Activity: Active
[49]
  AUClast/dose: 139 kg·ng·h/mL/mg
H9c2 [50]
  Activity: 203.6
Mus musculus [51]
  Activity: Active
H9c2 [52]
  Activity: Active

## CCC(CC)O[C@@H]1C=C(C(=O)OCCN2CCOCC2)C[C@H](NC(=S)Nc2ccc3c(c2)C(=O)OC32c3ccc(O)cc3Oc3cc(O)ccc32)[C@H]1NC(C)=O
[53]
  Drug uptake: Active
[54]
  Drug uptake: Active
